Measured values as given in ChEMBL document CHEMBL3046537, “Tautomeric origin of dual effects of N1-nicotinoyl-3-(4-hydroxy-3-methyl phenyl)-5-[(sub)phenyl]-2-pyrazolines on bacterial and viral strains: POM analyses as new efficient bioinformatics platform to predict and optimize bioactivity of drugs” (Med Chem Res, 2013).

What was measured:
Pichia kudriavzevii = test: Antifungal activity against Pichia kudriavzevii G03; assay type: functional
Aspergillus fumigatus = test: Antifungal activity against Aspergillus fumigatus; assay type: functional
Staphylococcus aureus = test: Antibacterial activity against Staphylococcus aureus 209P; assay type: functional
Escherichia coli = test: Antibacterial activity against Escherichia coli 2231; assay type: functional
Candida albicans [1] = test: Antifungal activity against Candida albicans ATCC 10231; assay type: functional
[2] = system: Human immunodeficiency virus; test: Antiviral activity against Human immunodeficiency virus; assay type: functional, organism-based; settings: Human immunodeficiency virus 1
Nakaseomyces glabratus = test: Antifungal activity against Candida glabrata H05; assay type: functional
Candida albicans [3] = test: Antifungal activity against Candida albicans; assay type: functional
[4] = system: Human immunodeficiency virus; test: Antiviral activity against Human immunodeficiency virus assessed as protection against virus-induced cytopathogenicity; assay type: functional; design: concentration or dose not given beside the values

SMILES | inhibition zone (IZ) (Pichia kudriavzevii) [mm] | inhibition zone (IZ) (Aspergillus fumigatus) [mm] | inhibition zone (IZ) (Staphylococcus aureus) [mm] | inhibition zone (IZ) (Escherichia coli) [mm] | inhibition zone (IZ) (Candida albicans [1]) [mm] | IC50 [2] [µM] | inhibition zone (IZ) (Nakaseomyces glabratus) [mm] | inhibition zone (IZ) (Candida albicans [3]) [mm] | Activity [4] [%]
Cc1cc(C2=CC(c3c(Cl)cccc3Cl)N(C(=O)c3ccncc3)N2)ccc1O (stereo not given) | 5 | >15 | >15 | >15 | >15 | > 14 | 10 | >15 | 24
Cc1cc(C2=CC(c3ccccc3)N(C(=O)c3ccncc3)N2)ccc1O (stereo not given) | <5 | 5 | 5 | 5 | <5 | > 11 | <5 | <5 | 13
COc1ccc(C2C=C(c3ccc(O)c(C)c3)NN2C(=O)c2ccncc2)cc1OC (stereo not given) | <5 | 10 | 10 | 10 | <5 | > 14 | <5 | 5 | 24
COc1cc(C2C=C(c3ccc(O)c(C)c3)NN2C(=O)c2ccncc2)cc(OC)c1OC (stereo not given) | <5 | 5 | 5 | 5 | <5 | > 66 | <5 | 5 | 26
Cc1cc(C2=CC(c3ccco3)N(C(=O)c3ccncc3)N2)ccc1O (stereo not given) | <5 | >15 | >15 | >15 | <5 | 7 | <5 | 5 | 86
Cc1cc(C2=CC(c3ccc(F)cc3)N(C(=O)c3ccncc3)N2)ccc1O (stereo not given) | <5 | >15 | >15 | >15 | <5 | > 68 | <5 | >15 | 8
Cc1cc(C2=CC(c3ccccc3Cl)N(C(=O)c3ccncc3)N2)ccc1O (stereo not given) | <5 | >15 | >15 | >15 | <5 | > 53 | <5 | <5 | 24
Cc1cc(C2=CC(c3cccc([N+](=O)[O-])c3)N(C(=O)c3ccncc3)N2)ccc1O (stereo not given) | <5 | >15 | >15 | >15 | <5 | > 11 | <5 | <5 | 40
COc1ccc(C2C=C(c3ccc(O)c(C)c3)NN2C(=O)c2ccncc2)cc1 (stereo not given) | <5 | 5 | 5 | 10 | <5 | > 125 | <5 | <5 | 24
Cc1cc(C2=CC(c3ccc(Cl)cc3)N(C(=O)c3ccncc3)N2)ccc1O (stereo not given) | <5 | >15 | >15 | >15 | <5 | > 36 | <5 | >15 | 42
Cc1cc(C2=CC(c3ccc(N(C)C)cc3)N(C(=O)c3ccncc3)N2)ccc1O (stereo not given) | 5 | >15 | >15 | >15 | 10 | 6 | 10 | >15 | 102
OC(Cn1cncn1)(Cn1cncn1)c1ccc(F)cc1F [FLUCONAZOLE] | >15 | >15 | <5 | <5 | >15 | – | >15 | >15 | –
Cc1ccnc2c1NC(=O)c1cccnc1N2C1CC1 [NEVIRAPINE] | – | – | – | – | – | 0.1 | – | – | 98
CC1COc2c(N3CCN(C)CC3)c(F)cc3c(=O)c(C(=O)O)cn1c23 (stereo not given) [OFLOXACIN] | <5 | <5 | >15 | >15 | <5 | – | <5 | <5 | –
